Results on one molecule are retold here after patent US20190029970A1, “FATTY ACID CONJUGATED NANOPARTICLES AND USES THEREOF” (The Chinese University of Hong Kong, priority 2017, published 2019).

This data set in a line: In vitro release of curcumin by dialysis in 0.1% Tween 20 at 37° C. In kind it is physicochemical. The following applies: within 24 hours; free curcumin 2 mg/mL in 2-propanol. As for the experimental part:
The in vitro release profiles of the drug-loaded NPs were assessed in 0.1% Tween 20 at 37° C. based on a dialysis method reported earlier with modifications. Briefly, 1 mL of the NPs was added into a dialysis tube (Float-A-lyzer G2 with a membrane MWCO 3.5-5 kD, Spectrum Laboratories, Inc., Rancho Dominguez, Calif., USA), which was subsequently placed in 250 mL of 0.1% Tween 20 at 37° C. Dialysate was replaced periodically. Samples (10 μL) were withdrawn from the dialysis tube at designated time points. The samples collected were analyzed using a UPLC-UV method and GraphPad Prism 5 was employed to plot the cumulative drug release versus time. The diffusional behaviour of curcumin (2 mg/mL in isopropanol) was also determined using the same procedure, except the dialysate was replaced with isopropanol.

`COc1cc(/C=C/C(=O)CC(=O)/C=C/c2ccc(O)c(OC)c2)ccc1O` [free curcumin, curcumin]: the curcumin released is reported as above 80%.
